ChEMBL document CHEMBL1201862, “PubChem BioAssay data set” (2004)
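Cultured in 96-well plates, cells were exposed to test compound for 48 hours across five concentrations. The concentration for 50% growth inhibition is given as GI50.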 Active and inactive are the calls of the source. No stated cut-off is given here; in the data, active = GI50 up to about 1.1 µM and inactive = higher.

Key:
Test in all cases: NCI anticancer screen, dose series, 48 h
RPMI-8226 = tested on: RPMI-8226
MOLT-4 = tested on: MOLT-4
NCI-H226 = tested on: NCI-H226
SF-268 = tested on: SF-268
HT-29 = tested on: HT-29
T47D = tested on: T47D
EKVX = tested on: EKVX
SNB-75 = tested on: SNB-75
SNB-19 = tested on: SNB-19
KM12 = tested on: KM12
RXF 393 = tested on: RXF 393
UACC-257 = tested on: UACC-257
UO-31 = tested on: UO-31
UACC-62 = tested on: UACC-62
OVCAR-8 = tested on: OVCAR-8
SN12C = tested on: SN12C
LOX IMVI = tested on: LOX IMVI
Hs-578T = tested on: Hs-578T
U-251 = tested on: U-251
SF-539 = tested on: SF-539

Measured: GI50

COc1ccc(/C=C2\CCS(=O)(=O)c3ccccc3C2=O)cc1
inactive: RPMI-8226 19.3 µM | MOLT-4 18.1 µM | NCI-H226 20.2 µM | SF-268 30.3 µM | HT-29 18.8 µM | T47D 22.7 µM | EKVX 19.1 µM | SNB-75 33.3 µM | SNB-19 24.5 µM | KM12 16.6 µM | RXF 393 22.6 µM | UACC-257 23.3 µM | UO-31 19.7 µM | UACC-62 20 µM | OVCAR-8 22.2 µM | SN12C 28.3 µM | LOX IMVI 20.4 µM | Hs-578T 31.3 µM | U-251 17.8 µM | SF-539 21.1 µM

O=C(c1ccco1)N(C(=O)N1CCC(c2ccccc2)CC1)c1ccccc1
inactive: RPMI-8226 17.4 µM | MOLT-4 17.7 µM | NCI-H226 31.7 µM | SF-268 99.3 µM | HT-29 47.6 µM | T47D 21.4 µM | EKVX 20.2 µM | SNB-75 1.95 µM | SNB-19 > 100 µM | KM12 27.2 µM | RXF 393 34 µM | UACC-257 38.9 µM | UO-31 24.4 µM | UACC-62 52.1 µM | OVCAR-8 40.7 µM | SN12C > 100 µM | LOX IMVI 59.7 µM | Hs-578T 60.4 µM | U-251 76.2 µM | SF-539 74.5 µM

O=C(O)Cc1ccc(Oc2nc3ccccc3nc2-c2cccs2)cc1
inactive: RPMI-8226 33.1 µM | MOLT-4 50 µM | NCI-H226 52.4 µM | SF-268 66.4 µM | HT-29 42.6 µM | T47D 20 µM | EKVX 32.4 µM | SNB-75 27.2 µM | SNB-19 82.8 µM | KM12 44.2 µM | RXF 393 17.4 µM | UACC-257 > 100 µM | UO-31 37.3 µM | UACC-62 58.1 µM | OVCAR-8 71.9 µM | SN12C 84.9 µM | LOX IMVI 40.6 µM | Hs-578T 61.7 µM | U-251 30.5 µM | SF-539 79.4 µM

CCOC(=O)[C@@]12C[C@](/C=C/OC)(O[Si](C)(C)C)[C@@]13c1cc(OC)c(OC)cc1CCN3C(=O)C2O (stereo not given in full)
inactive: RPMI-8226 > 100 µM | MOLT-4 > 100 µM | NCI-H226 > 100 µM | SF-268 > 100 µM | HT-29 > 100 µM | T47D > 100 µM | EKVX > 100 µM | SNB-75 47.6 µM | SNB-19 > 100 µM | KM12 > 100 µM | RXF 393 > 100 µM | UACC-257 > 100 µM | UO-31 > 100 µM | UACC-62 46.9 µM | OVCAR-8 > 100 µM | SN12C > 100 µM | LOX IMVI > 100 µM | Hs-578T 5.98 µM | U-251 > 100 µM | SF-539 > 100 µM

Nc1ccc(S(=O)(=O)Nc2cnc3c(Cl)cccc3n2)cc1 [CHLORSULFAQUINOXALINE]
inactive: RPMI-8226 129 µM | MOLT-4 75.2 µM | NCI-H226 163 µM | SF-268 197 µM | HT-29 248 µM | T47D 96.2 µM | EKVX 222 µM | SNB-75 181 µM | SNB-19 92.3 µM | KM12 147 µM | RXF 393 82.2 µM | UACC-257 344 µM | UO-31 151 µM | UACC-62 36.7 µM | OVCAR-8 144 µM | SN12C 94.4 µM | LOX IMVI 84.9 µM | Hs-578T 63.5 µM | U-251 207 µM | SF-539 126 µM
